Reference: ChEMBL document CHEMBL1157533 (J Med Chem, 2008)

Assays:
[1] = target: Beta-1 adrenergic receptor (Homo sapiens, UniProt P08588); experiment: Agonist activity at human recombinant beta-1 adrenergic receptor expressed in CHO cells assessed as cAMP accumulation by enzyme immuno assay; assay type: functional, cell-based
[2] = target: Beta-3 adrenergic receptor (Homo sapiens, UniProt P13945); experiment: Agonist activity at human recombinant beta3 adrenergic receptor expressed in CHO cells assessed as cAMP accumulation by enzyme immuno assay; assay type: functional, cell-based
Chain of Beta-3 adrenergic receptor (Homo sapiens, UniProt P13945) (P13945 whole entry): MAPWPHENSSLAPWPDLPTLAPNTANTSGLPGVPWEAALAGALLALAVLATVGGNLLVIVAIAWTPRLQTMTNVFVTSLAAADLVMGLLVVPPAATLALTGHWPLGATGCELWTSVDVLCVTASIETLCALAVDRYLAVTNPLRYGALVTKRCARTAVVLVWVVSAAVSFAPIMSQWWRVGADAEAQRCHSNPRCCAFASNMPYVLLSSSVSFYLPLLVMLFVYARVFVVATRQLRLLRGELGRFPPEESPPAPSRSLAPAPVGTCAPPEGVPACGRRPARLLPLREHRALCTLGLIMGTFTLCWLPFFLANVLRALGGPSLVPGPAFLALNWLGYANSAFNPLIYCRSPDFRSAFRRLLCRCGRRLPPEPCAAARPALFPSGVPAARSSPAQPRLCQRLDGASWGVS

[3] = target: Beta-2 adrenergic receptor (Homo sapiens, UniProt P07550); experiment: Agonist activity at human recombinant beta2 adrenergic receptor expressed in CHO cells assessed as cAMP accumulation by enzyme immuno assay; assay type: functional, cell-based
Chain of Beta-2 adrenergic receptor (P07550 whole entry): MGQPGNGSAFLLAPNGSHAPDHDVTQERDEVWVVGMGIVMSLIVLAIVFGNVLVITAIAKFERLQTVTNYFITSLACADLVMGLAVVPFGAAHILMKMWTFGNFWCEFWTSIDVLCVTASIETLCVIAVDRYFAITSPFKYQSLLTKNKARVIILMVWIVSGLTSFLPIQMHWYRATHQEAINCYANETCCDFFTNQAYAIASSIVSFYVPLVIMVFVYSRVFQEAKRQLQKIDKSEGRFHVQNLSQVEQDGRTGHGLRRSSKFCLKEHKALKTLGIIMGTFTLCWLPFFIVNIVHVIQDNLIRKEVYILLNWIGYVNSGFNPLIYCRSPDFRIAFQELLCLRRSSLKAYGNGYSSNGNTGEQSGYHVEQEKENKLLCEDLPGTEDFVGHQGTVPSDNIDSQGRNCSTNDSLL

[4] = Cmax in monkey at 0.32 mg/kg, po by cassette assay; assay type: ADME, organism-based, Macaca mulatta; set-up: dose 0.32 mg/kg, route oral; details: rhesus monkey, in vivo
[5] = AUC (0 to 24 hrs) in monkey at 0.32 mg/kg, po by cassette assay; assay type: ADME, organism-based, Macaca mulatta; set-up: time < 24 hr, dose 0.32 mg/kg, route oral; details: rhesus monkey, plasma
[6] = Bioavailability in monkey at 0.32 mg/kg, po by cassette assay; assay type: ADME, organism-based, Macaca mulatta; details: rhesus monkey, in vivo
[7] = Terminal half life in monkey plasma at 0.32 mg/kg, iv by cassette assay; assay type: ADME, organism-based, Macaca mulatta; set-up: dose 0.32 mg/kg, route intravenous; details: rhesus monkey, read-out: beta t1/2 (converted)
[8] = Total clearance in monkey at 0.32 mg/kg, iv by cassette assay; assay type: ADME, organism-based, Macaca mulatta; set-up: dose 0.32 mg/kg, route intravenous; details: rhesus monkey, in vivo
[9] = Cmax in dog at 0.1 mg/kg, po; assay type: ADME, organism-based, Canis lupus familiaris; set-up: dose 0.1 mg/kg, route oral; details: in vivo
[10] = Bioavailability in dog at 0.1 mg/kg, po; assay type: ADME, organism-based, Canis lupus familiaris; details: in vivo
[11] = Terminal half life in dog at 0.1 mg/kg, iv; assay type: ADME, organism-based, Canis lupus familiaris; set-up: dose 0.1 mg/kg, route intravenous; details: in vivo, read-out: beta t1/2 (converted)
[12] = Total clearance in dog at 0.1 mg/kg, iv; assay type: ADME, organism-based, Canis lupus familiaris; set-up: dose 0.1 mg/kg, route intravenous; details: in vivo
[13] = Cmax in rat at 0.34 mg/kg, po by cassette assay; assay type: ADME, organism-based; set-up: dose 0.34 mg/kg, route oral; details: in vivo
[14] = AUC (0 to 24 hrs) in rat at 0.34 mg/kg, po by cassette assay; assay type: ADME, organism-based; set-up: time < 24 hr, dose 0.34 mg/kg, route oral; details: plasma
Rattus norvegicus [15] = experiment: Terminal half life in rat at 0.34 mg/kg, iv by cassette assay; assay type: ADME, organism-based; set-up: dose 0.34 mg/kg, route intravenous; details: in vivo
[16] = Total clearance in rat at 0.34 mg/kg, iv by cassette assay; assay type: ADME, organism-based; set-up: dose 0.34 mg/kg, route intravenous; details: in vivo
Rattus norvegicus [17] = experiment: Bioavailability in rat at 0.34 mg/kg, po by cassette assay; assay type: ADME, organism-based; details: in vivo
[18] = target: Beta-3 adrenergic receptor (Canis lupus familiaris, UniProt O02662); experiment: Agonist activity at dog recombinant beta3 adrenergic receptor expressed in CHO cells assessed as cAMP accumulation by enzyme immuno assay; assay type: functional, cell-based
Chain of Beta-3 adrenergic receptor (Canis lupus familiaris, UniProt O02662) (O02662 whole entry): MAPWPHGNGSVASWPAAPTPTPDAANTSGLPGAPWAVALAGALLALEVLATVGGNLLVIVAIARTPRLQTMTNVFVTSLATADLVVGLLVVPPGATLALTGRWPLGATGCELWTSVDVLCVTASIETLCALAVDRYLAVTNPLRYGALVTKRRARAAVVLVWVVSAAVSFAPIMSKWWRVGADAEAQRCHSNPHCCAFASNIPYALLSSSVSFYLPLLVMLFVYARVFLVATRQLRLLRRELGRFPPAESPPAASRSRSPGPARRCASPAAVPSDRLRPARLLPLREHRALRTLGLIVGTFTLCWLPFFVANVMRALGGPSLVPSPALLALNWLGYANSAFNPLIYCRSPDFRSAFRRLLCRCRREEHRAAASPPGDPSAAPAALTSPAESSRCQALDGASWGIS

[19] = Protein binding in Beagle dog serum; assay type: ADME, cell-free, Canis lupus familiaris; details: read-out: PPB (converted)
[20] = AUC (0 to 24 hrs) in dog at 0.1 mg/kg, po; assay type: ADME, organism-based, Canis lupus familiaris; set-up: time < 24 hr, dose 0.1 mg/kg, route oral; details: plasma
Canis familiaris = species: Canis familiaris; experiment: cells; details: Canis lupus familiaris, 3 h
Description: Inhibition of carbachol-induced increase in intravesical pressure in intraduodenally dosed Beagle dog OAB model for 180 mins

[21] = Cmax in dog at 0.1 mg/kg, po by cassette assay; assay type: ADME, organism-based, Canis lupus familiaris; set-up: dose 0.1 mg/kg, route oral; details: in vivo
[22] = AUC (0 to 24 hrs) in dog at 0.1 mg/kg, po by cassette assay; assay type: ADME, organism-based, Canis lupus familiaris; set-up: time < 24 hr, dose 0.1 mg/kg, route oral; details: plasma
[23] = Bioavailability in dog at 0.1 mg/kg, po by cassette assay; assay type: ADME, organism-based, Canis lupus familiaris; details: in vivo
[24] = Terminal half life in dog at 0.1 mg/kg, iv by cassette assay; assay type: ADME, organism-based, Canis lupus familiaris; set-up: dose 0.1 mg/kg, route intravenous; details: in vivo, read-out: beta t1/2 (converted)
[25] = Total clearance in dog at 0.1 mg/kg, iv by cassette assay; assay type: ADME, organism-based, Canis lupus familiaris; set-up: dose 0.1 mg/kg, route intravenous; details: in vivo
[26] = Bioavailability in dog; assay type: ADME, organism-based, Canis lupus familiaris; details: in vivo
[27] = AUC (0 to 2 hrs) in Beagle dog at 0.1 mg/kg, po by cassette assay; assay type: ADME, organism-based, Canis lupus familiaris; set-up: time < 2 hr, dose 0.1 mg/kg, route oral; details: plasma
[28] = Terminal half life in Beagle dog at 0.1 mg/kg, iv by cassette assay; assay type: ADME, organism-based, Canis lupus familiaris; set-up: dose 0.1 mg/kg, route intravenous; details: in vivo, read-out: beta t1/2 (converted)
[29] = Volume of distribution at steady state in Beagle dog at 0.1 mg/kg, iv by cassette assay; assay type: ADME, organism-based, Canis lupus familiaris; set-up: dose 0.1 mg/kg, route intravenous; details: in vivo, read-out: Vdss
[30] = AUC (0 to 24 hrs) in Beagle dog at 0.1 mg/kg, iv by cassette assay; assay type: ADME, organism-based, Canis lupus familiaris; set-up: time < 24 hr, dose 0.1 mg/kg, route intravenous; details: plasma
[31] = Total clearance in Beagle dog at 0.1 mg/kg, iv by cassette assay; assay type: ADME, organism-based, Canis lupus familiaris; set-up: dose 0.1 mg/kg, route intravenous; details: in vivo
[32] = Bioavailability in Beagle dog at 0.1 mg/kg, po by cassette assay; assay type: ADME, organism-based, Canis lupus familiaris; details: in vivo
[33] = Metabolic stability assessed as intrinsic clearance in dog liver microsome in presence of NADPH-generating system; assay type: ADME, Canis lupus familiaris; details: liver microsomes
[34] = Metabolic stability assessed as intrinsic clearance in rat liver microsome in presence of NADPH-generating system; assay type: ADME; details: liver microsomes
[35] = Metabolic stability assessed as intrinsic clearance in monkey liver microsome in presence of NADPH-generating system; assay type: ADME, Macaca mulatta; details: rhesus monkey, liver microsomes
[36] = Metabolic stability assessed as intrinsic clearance in human liver microsome in presence of NADPH-generating system; assay type: ADME; details: liver microsomes
[37] = Cmax in rat at 1.0 mg/kg, po by cassette assay; assay type: ADME, organism-based; set-up: dose 1 mg/kg, route oral; details: in vivo
[38] = AUC (0 to 24 hrs) in rat at 1.0 mg/kg, po by cassette assay; assay type: ADME, organism-based; set-up: time < 24 hr, dose 1 mg/kg, route oral; details: plasma
[39] = Bioavailability in rat at 1.0 mg/kg, po by cassette assay; assay type: ADME, organism-based; details: in vivo
[40] = Total clearance in rat at 1.0 mg/kg, iv by cassette assay; assay type: ADME, organism-based; set-up: dose 1 mg/kg, route intravenous; details: in vivo

Chain of Beta-1 adrenergic receptor (P08588 whole entry): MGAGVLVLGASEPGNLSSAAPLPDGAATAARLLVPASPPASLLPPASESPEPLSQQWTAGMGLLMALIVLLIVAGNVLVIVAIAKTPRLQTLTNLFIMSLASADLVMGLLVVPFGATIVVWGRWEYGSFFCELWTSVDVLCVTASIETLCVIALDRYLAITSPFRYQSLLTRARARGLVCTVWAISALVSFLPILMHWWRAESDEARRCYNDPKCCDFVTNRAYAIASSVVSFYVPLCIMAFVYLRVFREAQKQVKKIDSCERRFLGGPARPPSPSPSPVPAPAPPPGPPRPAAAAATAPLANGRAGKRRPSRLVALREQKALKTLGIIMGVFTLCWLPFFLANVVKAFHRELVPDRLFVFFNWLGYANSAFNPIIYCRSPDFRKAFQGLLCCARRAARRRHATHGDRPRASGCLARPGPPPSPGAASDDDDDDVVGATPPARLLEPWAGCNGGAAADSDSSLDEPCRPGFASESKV

SMILES | EC50 [1] [nM] | EC50 [2] [nM] | EC50 [3] [nM] | AUC(0-t) at 24 h [5] [ng·h/mL] | bioavailability [6] [%] | clearance [8] [mL/min/kg] | Cmax [9] [ng/mL] | bioavailability [10] [%] | half-life [11] [h] | clearance [12] [mL/min/kg] | EC50 [18] [nM] | fraction unbound [19] | AUC(0-t) at 24 h [20] [ng·h/mL] | EC50 (Canis familiaris) [nM] | ED50 (Canis familiaris) [mg/kg] | Cmax [21] [ng/mL] | AUC(0-t) at 24 h [22] [ng·h/mL] | bioavailability [23] [%] | half-life [24] [h] | clearance [25] [mL/min/kg] | other results
CC(C)Oc1cc(-c2ccc(CCN[C@@H](C)[C@H](O)c3ccccc3)cc2)ccc1C(=O)O | 780 | 0.81 | > 10000 | 1800 | 88.2 | 2.5 | 7.4 | 63.9 | 14.3 | 7.3 | 3.7 | 0.14 | 134 | 9.5 | 0.02 |  |  |  |  |  | Cmax [4]: 178 ng/mL; half-life [7]: 29 h; Cmax [13]: 125 ng/mL; AUC(0-t) at 24 h [14]: 880 ng·h/mL; beta t1/2 (Rattus norvegicus [15]): 8.2 h; clearance [16]: 6.8 mL/min/kg; bioavailability (Rattus norvegicus [17]): 100%
CC(C)Cc1cc(-c2ccc(OCCNC[C@H](O)c3ccc(N)nc3)cc2)ccc1C(=O)O | 12 | 0.059 |  |  |  |  |  |  |  |  |  |  |  |  |  | 11.6 | 38.2 | 34.8 | 9.5 | 14.2 | 
O=C(O)c1ccc(-c2ccc(CCNC[C@H](O)c3cccc(Cl)c3)cc2)cc1OC1CCCCC1 |  |  |  |  |  |  |  |  |  |  |  |  |  |  |  |  |  |  |  |  | bioavailability [26]: 0%
CC(C)Oc1cc(-c2ccc(C[C@@H](C)NC[C@H](O)c3ccccc3)cc2)ccc1C(=O)O | 86 | 0.091 | > 10000 | 1300 | 52.8 | 1.8 | 8.5 | 79.6 | 14.3 | 7.83 | 0.19 | 0.14 | 162 | 2.5 | 0.0035 |  |  |  |  |  | AUC(0-t) at 2 h [27]: 106 ng·h/mL; half-life [28]: 15.5 h; Vd [29]: 5.4 L/kg; AUC(0-t) at 24 h [30]: 260 ng·h/mL; clearance [31]: 6.5 mL/min/kg; bioavailability [32]: 41%; CLint scaled [33]: < 0.1 mL/min/kg; CLint scaled [34]: < 0.1 mL/min/kg; CLint scaled [35]: < 1 mL/min/kg; CLint scaled [36]: < 0.1 mL/min/kg; Cmax [37]: 116 ng/mL; AUC(0-t) at 24 h [38]: 1640 ng·h/mL; bioavailability [39]: 69.7%; clearance [40]: 7.2 mL/min/kg
CCCOc1cc(-c2ccc(OCCNC[C@H](O)c3cccc(Cl)c3)cc2)ccc1C(=O)O | 120 | 0.21 |  |  |  |  |  |  |  |  |  |  |  |  |  | 40.6 | 420 | 69.7 | 10.9 | 2.9 | 
